biological target: recombinant HIV protease (Human immunodeficiency virus type 1 group M subtype B, UniProt P12497); settings: inhibitor 5 μM (final concentration), 2.0 μg enzyme

Row | Compound | residual enzymic activity
1 | CC[C@H](C)[C@H](NC(=O)[C@@H]1CCCN1C(=O)[C@@H](O)[C@H](Cc1ccccc1)NC(=O)[C@H](CC(N)=O)NC(=O)OCc1ccccc1)C(=O)NCC1CCCCC1 [Example 32, Benzyloxycarbonyl-Asn-(2S,3S)-AHPBA-Pro-Ile-NH--CH2 --C6 H11] | 11.0%

biological target: T1, chemically synthesized HIV protease (Human immunodeficiency virus type 1 group M subtype B, UniProt P12497, C555A/C583A); type: biochemical; settings: inhibitor 5 μM (final concentration)
T1 construct: The HIV protease was chemically synthesized; made in house; host or cells: chemical peptide synthesis, no expression host
Protocol: The HIV protease was chemically synthesized by replacement of two cysteine residues in the natural sequence [Science, 230, 349 (1985)] with alanine residues. The reaction mixture contained 100 mM MES buffer (pH 5.5), 40 mM of substrate (Ac-[…]NH2 trifluoro-acetate), inhibitors at varying concentrations dissolved in DMSO and 9.2 μg of the HIV protease in a total volume of 15 μl. Incubation was carried out at 37° C. for 60 min. The reaction was started by the addition of the enzyme and terminated by 15 μl of acetonitrile. The amount of a fragment peptide produced was measured by reversed-phase HPLC analysis using an internal standerd. The HPLC condition was as followes.
Solvent A: 0.1% trifluoroacetic acid aqueous solution
Gradient: B was increased in 1.0%/min from 100% of A,

Row | Compound | Residual Activity (%) 5 μM
2 | CC[C@H](C)[C@H](NC(=O)[C@@H]1CCCN1C(=O)[C@@H](O)[C@H](Cc1ccccc1)NC(=O)[C@H](CC(N)=O)NC(=O)OCc1ccccc1)C(=O)NCC1CCCCC1 [Example 32, Benzyloxycarbonyl-Asn-(2S,3S)-AHPBA-Pro-Ile-NH--CH2 --C6 H11] | 4.0%

same assay, conditions: inhibitor 1 mM

Row | Compound | Residual Activity (%) 1 mM
3 | H-Val-Val-(2R,3S)-AHPBA-(D)-Phe-(D)-Val-(D)-Val-NH2 [Example 23] | 28.3%
4 | CC(C)(C)OC(=O)N[C@@H](CO)C(=O)N[C@@H](Cc1ccccc1)[C@@H](O)C(=O)NCC1CCCCC1 [Example 5, Boc-Ser-(2R,3S)-AHPBA-NH--CH2 --C6 H11] | 82.9%
5 | CC[C@H](C)[C@H](NC(=O)[C@@H]1CCCN1C(=O)[C@@H](O)[C@H](Cc1ccccc1)NC(=O)OC(C)(C)C)C(=O)OC1CCCCC1 [Example 28, Boc-(2S,3S)-AHPBA-Pro-Ile-O--C6 H11] | 63.9%
6 | CC(C)(C)OC(=O)N[C@@H](Cc1ccccc1)C(=O)N[C@@H](CO)C(=O)N[C@@H](Cc1ccccc1)[C@H](O)C(=O)NCC1CCCCC1 [Example 8, Boc-Phe-Ser(2S,3S)-AHPBA-NH--CH2 --C6 H11] | 47.0%
7 | N[C@@H](Cc1ccccc1)C(=O)N[C@@H](CO)C(=O)N[C@@H](Cc1ccccc1)[C@H](O)C(=O)NCC1CCCCC1 [Example 15, H-Phe-Ser-(2S,3S)-AHPBA-NH--CH2 --C6 H11] | 23.8%
8 | CC(C)(C)OC(=O)N[C@@H](CC(N)=O)C(=O)N[C@@H](Cc1ccccc1)[C@@H](O)C(=O)NCC1CCCCC1 [Example 1, Boc-Asn-(2R,3S)-AHPBA-NH--CH2 --C6 H11] | 32.8%
9 | CC(C)(C)OC(=O)N[C@@H](Cc1ccccc1)C(=O)N[C@@H](CO)C(=O)N[C@@H](Cc1ccccc1)[C@@H](O)C(=O)NCC1CCCCC1 [Example 6, Boc-Phe-Ser-(2R,3S)-AHPBA-NH--CH2 --C6 H11] | 33.3%
10 | Boc-(2S,3S)-AHPBA-(cHexm)Gly-Ile-NH--CH2 --C6 H11 [Example 33] | 85.6%
11 | NC(=O)C[C@H](NC(=O)[C@@H](N)Cc1ccccc1)C(=O)N[C@@H](Cc1ccccc1)[C@@H](O)C(=O)NCC1CCCCC1 [Example 10, H-Phe-Asn-(2R,3S)-AHPBA-NH--CH2 --C6 H11] | 43.4%
12 | N[C@@H](CO)C(=O)N[C@@H](Cc1ccccc1)[C@H](O)C(=O)NCC1CCCCC1 [Example 14, H-Ser-(2S,3S)-AHPBA-NH--CH2 --C6 H11] | 95.5%
13 | CC[C@H](C)[C@H](NC(=O)[C@@H]1CCCN1C(=O)[C@H](O)[C@H](Cc1ccccc1)NC(=O)OC(C)(C)C)C(=O)OC1CCCCC1 [Example 29, Boc-(2R,3S)-AHPBA-Pro-Ile-O--C6 H11] | 88.3%
14 | CC(C)(C)OC(=O)N[C@@H](CO)C(=O)N[C@@H](Cc1ccccc1)[C@H](O)C(=O)NCC1CCCCC1 [Example 7, Boc-Ser-(2S,3S)-AHPBA-NH--CH2 --C6 H11] | 15.6%
15 | N[C@@H](Cc1ccccc1)C(=O)N[C@@H](CO)C(=O)N[C@@H](Cc1ccccc1)[C@@H](O)C(=O)NCC1CCCCC1 [Example 13, H-Phe-Ser-(2R,3S)-AHPBA-NH--CH2 --C6 H11] | 58.9%
16 | N[C@@H](CO)C(=O)N[C@@H](Cc1ccccc1)[C@@H](O)C(=O)NCC1CCCCC1 [Example 12, H-Ser-(2R,3S)-AHPBA-NH--CH2 --C6 H11] | 89.7%
17 | CC(C)(C)OC(=O)N[C@@H](Cc1ccccc1)C(=O)N[C@@H](CC(N)=O)C(=O)N[C@@H](Cc1ccccc1)[C@H](O)C(=O)NCC1CCCCC1 [Example 4, Boc-Phe-Asn-(2S,3S)-AHPBA-NH--CH2 --C6 H11] | 20.3%
18 | NC(=O)C[C@H](NC(=O)[C@@H](N)Cc1ccccc1)C(=O)N[C@@H](Cc1ccccc1)[C@H](O)C(=O)NCC1CCCCC1 [Example 11, H-Phe-Asn-(2S,3S)-AHPBA-NH--CH2 --C6 H11] | 16.4%
19 | NC(=O)C[C@H](N)C(=O)N[C@@H](Cc1ccccc1)[C@@H](O)C(=O)NCC1CCCCC1 [Example 9, H-Asn-(2R,3S)-AHPBA-NH--CH2 --C6 H11] | 92.1%
20 | CC[C@H](C)[C@H](NC(=O)[C@@H]1CCCN1C(=O)[C@H](O)[C@H](Cc1ccccc1)NC(=O)OC(C)(C)C)C(=O)NCC1CCCCC1 [Example 31, Boc-(2R,3S)-AHPBA-Pro-Ile-NH--CH2 --C6 H11] | 47.4%
21 | CC(C)(C)OC(=O)N[C@@H](Cc1ccccc1)C(=O)N[C@@H](CC(N)=O)C(=O)N[C@@H](Cc1ccccc1)[C@@H](O)C(=O)NCC1CCCCC1 [Example 2, Boc-Phe-Asn-(2R,3S)-AHPBA-NH--CH2 --C6 H11] | 19.5%
22 | CC(C)(C)OC(=O)N[C@@H](CC(N)=O)C(=O)N[C@@H](Cc1ccccc1)[C@H](O)C(=O)NCC1CCCCC1 [Example 3, Boc-Asn-(2S,3S)-AHPBA-NH--CH2 --C6 H11] | 52.9%
23 | CC[C@H](C)[C@H](NC(=O)[C@@H]1CCCN1C(=O)[C@@H](O)[C@H](Cc1ccccc1)NC(=O)OC(C)(C)C)C(=O)NCC1CCCCC1 [Example 30, Boc-(2S,3S)-AHPBA-Pro-Ile-NH--CH2 --C6 H11] | 23.4%

Reference: US6329502A, “β-amino-α-hydroxycarboxylic acid derivatives and HIV protease inhibitors” (priority 1990, dated 2001)
